According to US20110288093A1 (priority 2010, published 2011):
“Also recorded” adds a separate entry of the source.

Columns and labels:
cholera toxin (CTX) = tested on: cholera toxin (CTX); parameters: species or system mice (CD1 strain); details: mouse, in vivo
[1] = tested on: Calcium activated chloride conductance (CaCC); test: Whole cell patch clamp recordings of CaCC in JME/CF15 cells; type: cell-based
Experimental: (§1) Compound 2 was tested in whole cell patch clamp recordings for its specific effect on the swelling-activated chloride conductance (VRAC), and the Calcium activated chloride conductance (CaCC). CaCC and VRAC were investigated in JME/CF15 cells. […] Effect of compound 2 was tested in 2 runs at 1 and 10 μM, respectively, on CaCC, and VRAC.
(§2) JME/CF15 cells (see Jefferson et al. “Expression of normal and cystic fibrosis phenotypes by continuous airway epithelial cell lines” Am J Physiol. (1990) 259:L496-L505) were cultured as described (see Schwarzer et al. “Organelle redox of CF and CFTR-corrected airway epithelia measured with roGFP1” Free Radic Biol Med. (2007) 43:300-316, incorporated herein by reference in its entirety) and were seeded onto glass cover slips at low density and used 1 to 2 days after seeding
(§3) Whole cell patch clamp experiments were performed as described (see Fischer et al. “Basolateral C1 channels in primary airway epithelial cultures” Am J Physiol Lung Cell Mol Physiol. (2007) 292:L1432-L1443, incorporated herein by reference in its entirety), the pipette solution contained (in mM): 140 HCl, 160 N-methyl-D-glucamine (NMDG), 1 MgCl2, 5 Hepes, 1 glucose, 5 MgATP, pH 7.4. To investigate VRAC, the pipette contained in addition 5 mM EGTA. To investigate CaCC, the intracellular free Ca concentration was buffered to ˜500 nM by adding 1.8 mM CaCl2 and 2 mM EGTA. […]

[2] = tested on: swelling-activated chloride conductance (VRAC); test: Whole cell patch clamp recordings of VRAC in JME/CF15 cells; type: cell-based
Experimental: as §1, §2, §3

[3] = 10 μM, 0% indicates complete block and 100% indicates no block
[4] = tested at 1 and 10 μM, block stronger at depolarizing (positive) potential

Structure (SMILES): O=C(NCc1ccc(Oc2ccccc2)cc1)c1nc(-c2cc(Br)c(O)c(Br)c2)no1 [BF'032, 3-(3,5-dibromo-4-hydroxyphenyl)-N-(4-phenoxybenzyl)-1,2,4-oxadiazole-5-carboxamide]
- inhibition of CTX-induced fluid secretion (cholera toxin (CTX)): 90.16%
- inhibition of fluid secretion (in words) (cholera toxin (CTX)): statistically significant inhibition
- net fluid secretion (loop weight/loop length), CTX loop (cholera toxin (CTX)): 0.06482 g/cm of loop

Structure (SMILES): O=S(=O)(Nc1cccc(-c2ccc(OCCc3ccc(Cl)cc3)nn2)c1)C(F)(F)F [compound 2, N-(3-(6-(4-chlorophenethoxy)pyridazin-3-yl)phenyl)-1,1,1-trifluoromethanesulfonamide]
- current remaining in CaCC after the addition of compound [1, 3]: 64%
- block of CaCC (in words) [1, 4]: blocks CaCC and that the block is voltage dependent; also recorded: blocked CaCC and the block was voltage dependent
- inhibition of fluid secretion (in words) (cholera toxin (CTX)): statistically significant inhibition
- current remaining in VRAC [2, 3]: 23%
- block of VRAC (in words) [2, 4]: blocks VRAC significantly and that the block is voltage dependent; also recorded: blocked VRAC significantly and the block was voltage dependent
